Source: ChEMBL document CHEMBL1135046, “Synthesis of an alpha-aminophosphonate nucleoside as an inhibitor of S-adenosyl-L-homocysteine hydrolase” (Bioorg Med Chem Lett, 2002)
One block for each molecule: values may come before it.

Legend:
[1] = molecular target: T1, Adenosylhomocysteinase (Rattus norvegicus) (UniProt P10760); assay: (§1) Inhibition constant for the compound was determined against the recombinant rat liver AdoHyc hydrolase (MV1304/pUCSAH)
T1 sequence (whole entry): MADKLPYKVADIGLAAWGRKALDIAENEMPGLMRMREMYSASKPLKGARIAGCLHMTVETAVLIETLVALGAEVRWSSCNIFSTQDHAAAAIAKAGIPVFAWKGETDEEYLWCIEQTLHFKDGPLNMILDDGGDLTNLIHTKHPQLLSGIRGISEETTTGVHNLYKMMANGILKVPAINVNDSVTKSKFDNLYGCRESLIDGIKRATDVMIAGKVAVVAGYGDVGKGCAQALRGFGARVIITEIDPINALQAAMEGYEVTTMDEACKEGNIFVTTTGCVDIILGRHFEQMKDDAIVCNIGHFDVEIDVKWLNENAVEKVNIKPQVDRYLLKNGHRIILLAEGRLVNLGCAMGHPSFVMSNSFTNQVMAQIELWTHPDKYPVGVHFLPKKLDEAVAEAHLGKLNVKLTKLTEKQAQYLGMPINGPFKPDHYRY

Adenosylhomocysteinase = molecular target: T2, Adenosylhomocysteinase (Rattus norvegicus, UniProt P10760); assay: as §1
T2 sequence (P10760 whole entry): T1 sequence (whole entry)

[2] = substrate: Nc1ncnc2c1ncn2[C@@H]1O[C@H](CSCC[C@H](N)C(=O)O)[C@@H](O)[C@H]1O
Description: Km for the compound was determined against the recombinant rat liver AdoHyc hydrolase (MV1304/pUCSAH)

K inact [1]: 0.0145 min⁻¹
Molecule: Nc1ncnc2c1ncn2C1OC(CSCC[C@H](N)C(=O)O)[C@@H](O)[C@H]1O (stereo in doubt; form 1) [listing 1 of 2 here]

K inact [1]: 0.0049 min⁻¹
Molecule: Nc1ncnc2c1ncn2C1OC(CSCC[C@H](N)C(=O)O)[C@@H](O)[C@H]1O (stereo in doubt; form 2) [listing 1 of 2 here]

Ki (Adenosylhomocysteinase): 345 µM
Molecule: Nc1ncnc2c1ncn2C1OC(CSCC[C@H](N)C(=O)O)[C@@H](O)[C@H]1O (stereo in doubt; form 2) [listing 2 of 2 here]

K inact [1]: 0.0488 min⁻¹
Ki (Adenosylhomocysteinase): 105 µM
Molecule: CC(C)CSC[C@H]1OC(n2cnc3c(N)ncnc32)[C@H](O)[C@@H]1O (some centres not stated)

Ki (Adenosylhomocysteinase): 1090 µM
Molecule: Nc1ncnc2c1ncn2C1OC(CSCC[C@H](N)C(=O)O)[C@@H](O)[C@H]1O (stereo in doubt; form 1) [listing 2 of 2 here]

B1: Adenosylhomocysteinase (Rattus norvegicus), P10760 (protein)
chain: T1 sequence (whole entry)
Km [2]: 9.7 µM
